The values below come from ChEMBL document CHEMBL1201862, “PubChem BioAssay data set” (2004).

Test systems include Hs-578T; UACC-62; Malme-3M; IGROV-1; SNB-75; UO-31; SK-MEL-2; U-251; TK-10; CAKI-1; MDA-MB-435; OVCAR-8; BT-549; SNB-19; HCT-116; UACC-257; SK-MEL-28; MDA-MB-231; RPMI-8226.
What all share (experiment): NCI anticancer screen, dose series, 48 h

Each structure is given as a SMILES string.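 A five-concentration, 48-hour dose response in 96-well plates underlies each endpoint, interpolated linearly between surrounding concentrations. Here, GI50 denotes the concentration required for 50% inhibition of growth.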 Calls of active or inactive are those of the source. No stated cut-off is given here; in the data, active = GI50 up to about 1.1 µM and inactive = higher.

As to `C1=Nc2sc3c(c2C2=NCCN12)CCCC3`, the GI50 was 21.5 µM (inactive) in the assay on Hs-578T; 15.4 µM (inactive) in the assay with UACC-62; 16.9 µM (inactive) in the assay on Malme-3M; 15.4 µM (inactive) in the assay on IGROV-1; 18.9 µM (inactive) in the assay with SNB-75; 16.3 µM (inactive) in the assay with UO-31. In addition, the GI50 with SK-MEL-2 is 0.465 µM (active); in the assay with U-251 it was 21.4 µM (inactive); in the assay on TK-10, 16.6 µM (inactive); in the assay on CAKI-1, 17.4 µM (inactive); in the assay on MDA-MB-435 it was 18.5 µM (inactive); in the assay with OVCAR-8, 17.1 µM (inactive). For the same compound, the GI50 in the assay with BT-549 was 15.2 µM (inactive); in the assay on SNB-19, 18.4 µM (inactive); in the assay with HCT-116 it was 16.3 µM (inactive); in the assay with UACC-257, 16.3 µM (inactive); with SK-MEL-28 it was 20.7 µM (inactive); with MDA-MB-231, 14.2 µM (inactive). The GI50 with RPMI-8226 was 20.8 µM (inactive).
As to `COc1ccc(CC(C)NCC(O)c2ccc(O)c(NC=O)c2)cc1` (centres undefined), the GI50 with Hs-578T, in the assay with UACC-62, with Malme-3M, in the assay with IGROV-1, in the assay on SNB-75 and with UO-31 was > 100 µM (inactive) throughout. For the same compound, the GI50 is > 100 µM (inactive) with SK-MEL-2; > 100 µM (inactive) with U-251; > 100 µM (inactive) in the assay on TK-10; 42.2 µM (inactive) in the assay on CAKI-1; > 100 µM (inactive) in the assay on MDA-MB-435; > 100 µM (inactive) with OVCAR-8. Besides, the GI50 in the assay with BT-549 is > 100 µM (inactive); in the assay with SNB-19, > 100 µM (inactive); in the assay on HCT-116, 43.4 µM (inactive); in the assay with UACC-257 it was > 100 µM (inactive); with SK-MEL-28, > 100 µM (inactive); in the assay on MDA-MB-231 it was < 0.01 µM (active). In addition, the GI50 in the assay with RPMI-8226 is > 100 µM (inactive).
As for `NS(=O)(=O)c1ccc(NC(=O)N/N=C/c2ccccc2O)cc1`, the GI50 in the assay with Hs-578T was 60.5 µM (inactive); in the assay with UACC-62, 60.4 µM (inactive); with Malme-3M it was 74.3 µM (inactive); in the assay with IGROV-1 it was 58.7 µM (inactive); in the assay with SNB-75, 56.9 µM (inactive); in the assay on UO-31, 60.7 µM (inactive). The GI50 was 42 µM (inactive) with SK-MEL-2; 50.1 µM (inactive) in the assay with U-251; > 100 µM (inactive) in the assay on TK-10; 94.4 µM (inactive) in the assay on CAKI-1; 16.4 µM (inactive) with MDA-MB-435; 45.1 µM (inactive) in the assay with OVCAR-8. In addition, the GI50 in the assay on BT-549 is 43.8 µM (inactive); with SNB-19, 38.6 µM (inactive); in the assay on HCT-116, 48.2 µM (inactive); in the assay on UACC-257, 58.6 µM (inactive); with SK-MEL-28, 85.1 µM (inactive); in the assay on MDA-MB-231 it was > 100 µM (inactive). In addition, the GI50 in the assay on RPMI-8226 is > 100 µM (inactive).
As for `O=C(c1ccccc1)C1C(C(=O)c2ccccc2)N1Cc1ccccc1` (centres undefined), the GI50 in the assay on Hs-578T was 32.3 µM (inactive); with UACC-62 it was 15.7 µM (inactive); with Malme-3M, 34.4 µM (inactive); in the assay with IGROV-1, 49.8 µM (inactive); with SNB-75, 13.9 µM (inactive); in the assay on UO-31 it was 36.8 µM (inactive). Besides, the GI50 in the assay on SK-MEL-2 is 17.5 µM (inactive); in the assay on U-251, 27.6 µM (inactive); in the assay with TK-10, 46.9 µM (inactive); with CAKI-1 it was 75.3 µM (inactive); in the assay on MDA-MB-435, 21.8 µM (inactive); in the assay on OVCAR-8, 32.4 µM (inactive). Also, the GI50 was 25.9 µM (inactive) with BT-549; 37 µM (inactive) in the assay with SNB-19; 38.6 µM (inactive) with UACC-257; 32.7 µM (inactive) in the assay with SK-MEL-28; 26.1 µM (inactive) in the assay on MDA-MB-231; 48.9 µM (inactive) with RPMI-8226.
Regarding `Cc1[nH]c2ccccc2c1/C=N/c1ccc(Oc2ccccc2)cc1`, the GI50 in the assay with Hs-578T is 22.6 µM (inactive); in the assay on UACC-62 it was 17.9 µM (inactive); with Malme-3M, 19 µM (inactive); in the assay on IGROV-1 it was 13.4 µM (inactive); in the assay with SNB-75, 13 µM (inactive); in the assay on UO-31, 12 µM (inactive). The GI50 was 18.4 µM (inactive) in the assay with SK-MEL-2; 15.3 µM (inactive) with U-251; 16.4 µM (inactive) with TK-10; 15.9 µM (inactive) in the assay on CAKI-1; 17.2 µM (inactive) in the assay with MDA-MB-435; 18.3 µM (inactive) in the assay with OVCAR-8. Moreover, the GI50 in the assay on BT-549 was 14.8 µM (inactive); with SNB-19, 18 µM (inactive); in the assay with HCT-116, 16.6 µM (inactive); in the assay with UACC-257, 17.4 µM (inactive); in the assay with SK-MEL-28, 18.8 µM (inactive); with MDA-MB-231, 15.6 µM (inactive). The GI50 in the assay with RPMI-8226 was 10.4 µM (inactive).
Turning to `CCN(CC)C1Oc2cc3c(cc2C(c2cccc(OC)c2OC)C1C)OCO3` (centres undefined), the GI50 in the assay on Hs-578T is 3.66 µM (inactive); with UACC-62, 11.4 µM (inactive); in the assay with Malme-3M, 8.51 µM (inactive); in the assay with IGROV-1, 4.58 µM (inactive); with SNB-75 it was 6.03 µM (inactive); with UO-31, 4.21 µM (inactive). Further, the GI50 is 6.07 µM (inactive) in the assay on SK-MEL-2; 4.33 µM (inactive) in the assay with U-251; 5.77 µM (inactive) with TK-10; 2.82 µM (inactive) in the assay with CAKI-1; 10.1 µM (inactive) with MDA-MB-435; 3.56 µM (inactive) in the assay with OVCAR-8. The GI50 in the assay on BT-549 is 3.4 µM (inactive); with SNB-19, 8.07 µM (inactive); with HCT-116, 2.79 µM (inactive); with UACC-257, 3.95 µM (inactive); in the assay with SK-MEL-28 it was 14.9 µM (inactive); with MDA-MB-231, 13.3 µM (inactive). Besides, in the assay with RPMI-8226, the GI50 is 1.48 µM (inactive).
Take `CCOC(=O)c1nc2ccccc2nc1Oc1cc(OC)c(OC)c(OC)c1`: the GI50 was 27.1 µM (inactive) in the assay on Hs-578T; > 100 µM (inactive) in the assay with UACC-62; > 100 µM (inactive) in the assay with Malme-3M; > 100 µM (inactive) in the assay on IGROV-1; 44.3 µM (inactive) with SNB-75; > 100 µM (inactive) in the assay with UO-31. For the same compound, the GI50 is 90.2 µM (inactive) in the assay with SK-MEL-2; 32.6 µM (inactive) in the assay on U-251; 51.2 µM (inactive) in the assay with TK-10; 84.5 µM (inactive) in the assay with CAKI-1; > 100 µM (inactive) in the assay on MDA-MB-435; > 100 µM (inactive) in the assay with OVCAR-8. Further, the GI50 in the assay on BT-549 is > 100 µM (inactive); with SNB-19 it was > 100 µM (inactive); with HCT-116, > 100 µM (inactive); in the assay with UACC-257, > 100 µM (inactive); in the assay on SK-MEL-28 it was > 100 µM (inactive); with MDA-MB-231, 35 µM (inactive). Besides, the GI50 with RPMI-8226 is > 100 µM (inactive).
On to `O=C(O)CC1OCC=C2CN3CCC45C6=CC(=O)C(O)=C([N+](=O)[O-])C6=NC4C1C2CC35` (centres undefined), for which the GI50 is > 100 µM (inactive) in the assay with Hs-578T; 34.4 µM (inactive) with UACC-62; > 100 µM (inactive) with Malme-3M; > 100 µM (inactive) in the assay with IGROV-1; > 100 µM (inactive) in the assay with SNB-75; > 100 µM (inactive) in the assay with UO-31. The GI50 with SK-MEL-2 was > 100 µM (inactive); with U-251, > 100 µM (inactive); in the assay on TK-10 it was > 100 µM (inactive); with CAKI-1, > 100 µM (inactive); with MDA-MB-435, 17.2 µM (inactive); in the assay with OVCAR-8, > 100 µM (inactive). The GI50 with BT-549, in the assay with SNB-19, in the assay with HCT-116, in the assay on UACC-257, in the assay with SK-MEL-28 and with MDA-MB-231 was > 100 µM (inactive) throughout. Also, the GI50 in the assay on RPMI-8226 was 31 µM (inactive).
With `CCOP(=O)(OCC)/C(C#N)=C/c1c[nH]c2ccccc12`, the GI50 in the assay on Hs-578T was > 100 µM (inactive); in the assay with UACC-62 it was > 100 µM (inactive); in the assay on Malme-3M it was > 100 µM (inactive); in the assay with IGROV-1 it was > 100 µM (inactive); in the assay with SNB-75, > 100 µM (inactive); in the assay with UO-31 it was 45.8 µM (inactive). The GI50 in the assay with SK-MEL-2, with U-251, with TK-10, in the assay on CAKI-1, with MDA-MB-435 and in the assay with OVCAR-8 was > 100 µM (inactive) each time. For the same compound, the GI50 in the assay on BT-549 is 57.9 µM (inactive); with SNB-19, > 100 µM (inactive); in the assay with HCT-116, > 100 µM (inactive); in the assay with UACC-257 it was > 100 µM (inactive); with SK-MEL-28 it was > 100 µM (inactive); in the assay on MDA-MB-231, > 100 µM (inactive). The GI50 with RPMI-8226 is 90.4 µM (inactive).
In the case of `COc1ccc2nc3cc([N+](=O)[O-])ccc3c(NNc3ccc([N+](=O)[O-])cc3)c2c1`, the GI50 is 55.3 µM (inactive) with Hs-578T; 3.37 µM (inactive) in the assay on UACC-62; 30.1 µM (inactive) in the assay with Malme-3M; 7.96 µM (inactive) in the assay with IGROV-1; 67.9 µM (inactive) with SNB-75; 24.7 µM (inactive) in the assay with UO-31. The GI50 in the assay on SK-MEL-2 was 27.6 µM (inactive); in the assay on U-251, 20.8 µM (inactive); in the assay on TK-10, 2.46 µM (inactive); in the assay with CAKI-1, 0.818 µM (active); in the assay with MDA-MB-435, 31.6 µM (inactive); in the assay on OVCAR-8 it was > 58.1 µM (inactive). Besides, the GI50 is 43.1 µM (inactive) with BT-549; 24 µM (inactive) in the assay on SNB-19; 5.69 µM (inactive) in the assay on HCT-116; 1.83 µM (inactive) with UACC-257; 68.2 µM (inactive) in the assay on SK-MEL-28; 44 µM (inactive) in the assay on MDA-MB-231. Also, the GI50 in the assay with RPMI-8226 was 18.7 µM (inactive).
